One may read the EC50 as the concentration that produces a half-maximal response.

This assay has as its system M17-SYNwt cells. Put plainly: α-synuclein cytotoxicity assay (LDH leakage from paraquat-treated α-synuclein over-expressing neuroblastoma cells). The note with it: paraquat 32 mM, 40 hours, LDH release; for EC50: Homo sapiens, Neuroblastoma cell, 10 point curves in duplicate; for %I: percent inhibition of synuclein cytotoxicity at most effective concentration of test compound, relative to untreated paraquat cells. Type of assay: cell-based, human. On the procedure:
Subsequently, LDH activity was determined using Promega Cytotox 96 NonRadioactive cytotoxicity assay, (Cat. G1780) according the supplier's instructions.
This corresponds to the following equation: (LDHreleaseoftreatedparaquatcellsatnon-effectiveconcentrationoftestcmpd)−(LDHreleaseoftreatedparaquatcellsatmosteffectiveconcentrationoftestcmpd)/(LDHreleaseofuntreatedparaquatcells)−(LDHreleasecontrolcells)*100% [formula]
1,2,4-thiadazole compounds made according to the methods described herein were screened for activity using the α-synuclein cytotoxicity assay as described above. Dose responses were carried out on all compounds found to be active (10 point curves in duplicate).

In brackets after ≈: the same amount, converted by molar mass.

Take `COc1ccc(S(=O)(=O)N2CCN(c3nc(Cc4ccc(Cl)cc4)ns3)CC2C)cc1` (stereo not shown) [Compound 51, 1-[4-methoxyphenylsulfonyl]-4-[3-(4-chlorobenzyl)-1,2,4-thiadiazol-5-yl]-2-methylpiperazine]: the EC50 was found to be 0.00135 µg/mL (≈ 0.00281 µM) and the “%I” value was found to be 94%. For `O=S(=O)(c1ccc2ccccc2c1)N1CCN(c2nc(Cc3ccc(Cl)cc3)ns2)CC1` [Compound 52, 1-[2-naphtylsulfonyl]-4-[3-(4-chlorobenzyl)-1,2,4-thiadiazol-5-yl]piperazine] the same measures were 0.1 µg/mL (≈ 0.206 µM) and 104%.

On to `CC1CN(c2nc(Cc3ccc(F)cc3)ns2)CCN1S(=O)(=O)c1ccc(C(C)(C)C)cc1` (stereo not shown) [Compound 54, 1-[4-tert-butylphenylsulfonyl]-4-[3-(4-fluorobenzyl)-1,2,4-thiadiazol-5-yl]-2-methylpiperazine], for which the “%I” value is given as 60%. `CC(=O)Nc1ccc(S(=O)(=O)N2CCN(c3nc(Cc4ccc(F)cc4)ns3)CC2C)cc1` (stereo not shown) [Compound 55, 1-[4-acetamidophenylsulfonyl]-4-[3-(4-fluorobenzyl)-1,2,4-thiadiazol-5-yl]-2-methylpiperazine]: the EC50 turned out to be 0.0781 µg/mL (≈ 0.16 µM) and the “%I” value was 114%. As for `Cc1ccc(Cc2nsc(N3CCN(S(=O)(=O)c4cccc(C(F)(F)F)c4)C(C)C3)n2)cc1` (stereo not shown) [Compound 56, 1-[3-trifluoromethylphenylsulfonyl]-4-[3-(4-methylbenzyl)-1,2,4-thiadiazol-5-yl]-2-methylpiperazine], the “%I” value amounted to 87%.

As to `Cc1ccc(Cc2nsc(N3CCN(S(=O)(=O)c4ccc(F)cc4)CC3)n2)cc1` [Compound 57, 1-[4-fluorophenylsulfonyl]-4-[3-(4-methylbenzyl)-1,2,4-thiadiazol-5-yl]piperazine], a half-maximal effect (EC50) was put at 0.0104 µg/mL (≈ 0.024 µM) and the “%I” value was 88%. In the case of `Cc1ccc(Cc2nsc(N3CCN(S(=O)(=O)c4ccc(F)cc4)C(C)C3)n2)cc1` (stereo not shown) [Compound 58, 1-[4-fluorophenylsulfonyl]-4-[3-(4-methylbenzyl)-1,2,4-thiadiazol-5-yl]-2-methylpiperazine], the EC50 turned out to be 0.061 µg/mL (≈ 0.137 µM) and the “%I” value was 58%. Consider `CC1CN(c2nc(Cc3ccc(F)cc3)ns2)CCN1S(=O)(=O)c1ccc(F)cc1` (stereo not shown) [Compound 59, 1-[4-fluorophenylsulfonyl]-4-[3-(4-fluorobenzyl)-1,2,4-thiadiazol-5-yl]-2-methylpiperazine], for which the “%I” value is 42%. As to `COc1ccc(S(=O)(=O)N2CCN(c3nc(Cc4ccc(C)cc4)ns3)CC2C)cc1` (stereo not shown) [Compound 60, 1-[4-methoxyphenylsulfonyl]-4-[3-(4-methylbenzyl)-1,2,4-thiadiazol-5-yl]-2-methylpiperazine], the EC50 was found to be 0.0013 µg/mL (≈ 0.00283 µM) and the “%I” value amounted to 93%.

Regarding `CC(C)(C)c1ccc(S(=O)(=O)N2CCN(c3nc(Cc4ccc(F)cc4)ns3)CC2)cc1` [Compound 61, 1-[4-ter-butylphenylsulfonyl]-4-[3-(4-fluorobenzyl)-1,2,4-thiadiazol-5-yl]piperazine], the “%I” value is given as 47%. Still for that read-out and setting: the value for `Cc1ccc(Cc2nsc(N3CCN(S(=O)(=O)c4cccc(C(F)(F)F)c4)CC3)n2)cc1` [Compound 62, 1-[3-trifluoromethylphenylsulfonyl]-4-[3-(4-methylbenzyl)-1,2,4-thiadiazol-5-yl]piperazine] was 45%. Turning to `Cc1ccc(S(=O)(=O)N2CCN(c3nc(Cc4ccc(Cl)cc4)ns3)CC2)cc1` [Compound 63, 1-[4-methylphenylsulfonyl]-4-[3-(4-chlorobenzyl)-1,2,4-thiadiazol-5-yl]piperazine], a half-maximal response (EC50) required 0.0807 µg/mL (≈ 0.18 µM) and the “%I” value is 83%. Take `Cc1ccc(Cc2nsc(N3CCN(S(=O)(=O)c4ccc(Br)cc4)CC3)n2)cc1` [Compound 64, 1-[4-bromophenylsulfonyl]-4-[3-(4-methylbenzyl)-1,2,4-thiadiazol-5-yl]piperazine]: the “%I” value is reported as 58%. Regarding `Cc1ccc(Cc2nsc(N3CCN(S(=O)(=O)c4ccc5ccccc5c4)CC3)n2)cc1` [Compound 65, 1-[2-naphtylsulfonyl]-4-[3-(4-methylbenzyl)-1,2,4-thiadiazol-5-yl]piperazine], the EC50 was found to be 0.0393 µg/mL (≈ 0.0845 µM) and the “%I” value was found to be 78%. In the case of `Cc1ccc(Cc2nsc(N3CCN(S(=O)(=O)c4ccc(Cl)cc4)CC3)n2)cc1` [Compound 66, 1-[4-chlorophenylsulfonyl]-4-[3-(4-methylbenzyl)-1,2,4-thiadiazol-5-yl]piperazine], the “%I” value is recorded as 81%.

Consider `Cc1ccc(Cc2nsc(N3CCN(S(=O)(=O)c4ccc(C(C)(C)C)cc4)CC3)n2)cc1` [Compound 67, 1-[4-tert-butylphenylsulfonyl]-4-[3-(4-methylbenzyl)-1,2,4-thiadiazol-5-yl]piperazine], for which the “%I” value was determined as 41%. `COc1ccc(S(=O)(=O)N2CCN(c3nc(Cc4ccc(C)cc4)ns3)CC2)cc1` [Compound 68, 1-[4-methoxyphenylsulfonyl]-4-[3-(4-methylbenzyl)-1,2,4-thiadiazol-5-yl]piperazine]: the EC50 amounted to 0.000255 µg/mL (≈ 0.000574 µM) and the “%I” value came to 53%. Consider `CC(C)(C)c1ccc(S(=O)(=O)N2CCN(c3nc(Cc4ccc(Cl)cc4)ns3)CC2)cc1` [Compound 69, 1-[4-tert-butylphenylsulfonyl]-4-[3-(4-chlorobenzyl)-1,2,4-thiadiazol-5-yl]piperazine], for which the “%I” value worked out at 31%. For the compound `Cc1ccc(Cc2nsc(N3CCN(S(=O)(=O)c4cccc5cccnc45)CC3)n2)cc1` [Compound 70, 1-[quinoline-8-sulfonyl]-4-[3-(4-methylbenzyl)-1,2,4-thiadiazol-5-yl]piperazine], the “%I” value is on record as 44%. In the case of `Cc1ccc(Cc2nsc(N3CCN(S(=O)(=O)c4ccc([N+](=O)[O-])cc4)C(C)C3)n2)cc1` (stereo not shown) [Compound 71, 1-[4-nitrophenylsulfonyl]-4-[3-(4-methylbenzyl)-1,2,4-thiadiazol-5-yl]-2-methylpiperazine], the “%I” value was found to be 33%. Same read-out and setting: next, `CC1CN(c2nc(Cc3ccc(F)cc3)ns2)CCN1S(=O)(=O)c1ccc([N+](=O)[O-])cc1` (stereo not shown) [Compound 73, 1-[4-nitrophenylsulfonyl]-4-[3-(4-fluorobenzyl)-1,2,4-thiadiazol-5-yl]-2-methylpiperazine]: 33%.

In the case of `O=S(=O)(Cc1ccccc1)N1CCN(c2nc(Cc3ccc(Cl)cc3)ns2)CC1` [Compound 76, 1-(benzylsulfonyl)-4-[3-(4-chlorobenzyl)-1,2,4-thiadiazol-5-yl]piperazine], the “%I” value turned out to be 40%. Turning to `Cc1ccc(Cc2nsc(N3CCN(S(=O)(=O)Cc4ccccc4)CC3)n2)cc1` [Compound 77, 1-(benzylsulfonyl)-4-[3-(4-methylbenzyl)-1,2,4-thiadiazol-5-yl]piperazine], the “%I” value turned out to be 81%. `CCCCS(=O)(=O)N1CCN(c2nc(Cc3ccc(Cl)cc3)ns2)CC1` [Compound 81, 1-(butylsulfonyl)-4-[3-(4-chlorobenzyl)-1,2,4-thiadiazol-5-yl]piperazine]: a half-maximal effect (EC50) was put at 0.35 µg/mL (≈ 0.843 µM) and the “%I” value is on record as 80%. On the same counts, the results for `CCCCCCCCS(=O)(=O)N1CCN(c2nc(Cc3ccc(C)cc3)ns2)CC1` [Compound 82, 1-(octylsulfonyl)-4-[3-(4-methylbenzyl)-1,2,4-thiadiazol-5-yl]piperazine] are 1.58 µg/mL (≈ 3.51 µM) and 50%. On the same counts, the results for `CCCCS(=O)(=O)N1CCN(c2nc(Cc3ccc(C)cc3)ns2)CC1` [Compound 83, 1-(butylsulfonyl)-4-[3-(4-methylbenzyl)-1,2,4-thiadiazol-5-yl]piperazine] are 2.64 µg/mL (≈ 6.69 µM) and 36%. Regarding `CCS(=O)(=O)N1CCN(c2nc(Cc3ccc(Cl)cc3)ns2)CC1` [Compound 84, 1-(ethylsulfonyl)-4-[3-(4-chlorobenzyl)-1,2,4-thiadiazol-5-yl]piperazine], the EC50 stood at 3.48 µg/mL (≈ 8.99 µM) and the “%I” value stood at 53%. For `Cc1ccc(Cc2nsc(N3CCN(S(=O)(=O)C(C)C)CC3)n2)cc1` [Compound 85, 1-(isopropylsulfonyl)-4-[3-(4-methylbenzyl)-1,2,4-thiadiazol-5-yl]piperazine] the same measures were 3.65 µg/mL (≈ 9.59 µM) and 69%. With `CC1CN(c2nc(Cc3ccc(Cl)cc3)ns2)CCN1C(=O)/C=C/c1ccccc1` (stereo not shown) [Compound 86, 1-[(2E)-3-phenylprop-2-enoyl]-4-[3-(4-chlorobenzyl)-1,2,4-thiadiazol-5-yl]-2-methylpiperazine], the response was half-maximal at 1.13 µg/mL (≈ 2.57 µM) (EC50) and the “%I” value was determined as 81%. Turning to `CC1CN(c2nc(Cc3ccc(F)cc3)ns2)CCN1C(=O)/C=C/c1ccccc1` (stereo not shown) [Compound 87, 1-[(2E)-3-phenylprop-2-enoyl]-4-B103-2-methylpiperazine], the EC50 was found to be 2.49 µg/mL (≈ 5.89 µM) and the “%I” value worked out at 94%. Take `O=C(/C=C/c1ccccc1)N1CCN(c2nc(Cc3ccc(Cl)cc3)ns2)CC1` [Compound 88, 1-[(2E)-3-phenylprop-2-enoyl]-4-[3-(4-chlorobenzyl)-1,2,4-thiadiazol-5-yl]piperazine]: the “%I” value came to 72%. `CC1CN(c2nc(Cc3ccc(F)cc3)ns2)CCN1C(=O)CCc1ccccc1` (stereo not shown) [Compound 89, 1-(3-phenylpropanoyl)-4-[3-(4-fluorobenzyl)-1,2,4-thiadiazol-5-yl]-2-methylpiperazine]: a half-maximal effect (EC50) was put at 0.6 µg/mL (≈ 1.41 µM) and the “%I” value is 86%.

The values are drawn from patent EP1981504B1, “THIADIAZOLE DERIVATIVES FOR THE TREATMENT OF NEURO DEGENERATIVE DISEASES” (NV reMYND, priority 2006, dated 2007).
